Laboratory results: patent US12173042B2, “Methods of treating cancers with CT45 targeted therapies” (The University of Chicago, priority 2016, dated 2024)
Entries after “also recorded” stand apart in the source; their conditions may differ.

What was measured:
[1] = system: interaction of CT45 with heterochromatin-associated PP4; experiment: ChIP-MS of V5-tagged CT45 ± carboplatin; assay type: cell-based, human; settings: OVCAR5-V5-CT45 ± carboplatin
Protocol: For chromatin immunoprecipitation coupled to mass spectrometry (ChIP-MS), freshly harvested cells were crosslinked with 1% formaldehyde for 10 min in PBS. Cells were lysed in IP Buffer (50 mM Tris-HCl (pH 8), 100 mM NaCl, 5 mM EDTA (pH 8), 0.3% SDS, 1.7% Triton-X-100, supplemented with EDTA-free protease inhibitor cocktail (Roche) and phosphatase inhibitor cocktail (Roche)) and chromatin sonicated to an average size of 200-400 bp. 1 mg of total cell lysate was incubated with 3 μg of respective antibody overnight at 4° C. under constant rotation. The next day, 30 μl of protein G-coupled agarose beads (Cell signaling technology) were added and incubated for 3 h at 4° C. under constant rotation. Antibody-bait complexes were then washed three times with low salt wash buffer (50 mM HEPES pH 7.5, 140 mM NaCl, 1% Triton), once with high salt wash buffer (50 mM HEPES pH 7.5, 500 mM NaCl, 1% Triton) and twice with TBS. Elution was carried out by a partial on-bead digest as recently described. Peptides were finally desalted with C18 StageTips prior to MS analysis.

[2] = system: DNA damage in CT45-expressing cells; experiment: Comet assay; assay type: cell-based, human; settings: day 5
Protocol: Cells were treated with carboplatin for 3 days and then incubated an additional 2 days without drug. The comet assay was performed on day 5 as previously described39. Briefly, 2.5e4 cells/condition were resuspended in 70 uL 0.5% low melting point agarose (LMPA) at 37 C and plated on a glass slide precoated with 1% agarose in PBS. Samples were allowed to solidify at 4 C for 20 minutes with a square cover glass. The cover class was gently removed and a second 70 uL layer of 0.5% LMPA was applied and again allowed to solidify. The cover glass was removed and the slides immersed in Comet Lysis solution (2.5M NaCl, 100 mM EDTA, 10 mM Tris, 0.015% Triton X-100, pH 10) for one hour at 4 C and from this point forward protected from light. After lysis, the slides were equilibrated for 20 minutes in Comet Electrophoresis Buffer (0.3N NaOH, 1 mM EDTA, […]) at 4 C, and then run at 25V for 20 minutes. […] At least 100 cells were quantified/sample using the software OpenComet40. […]
Cells were treated with carboplatin for 3 days and then incubated an additional 2 days without drug. […] At least 100 cells were quantified/sample using the software OpenComet. […]

[3] = system: OVCAR5 stably overexpressing CT45; experiment: Clonogenic survival assay, OVCAR5; assay type: cell-based, human; settings: CT45 expressing cells treated with carboplatin
Protocol: Cells were treated with different carboplatin concentrations for 48 hours and 7-9 days after treatment colonies were counted and plotted as a percent of control on a logarithmic scale.
Cells were treated with different carboplatin concentrations for 48-72 hours. 2000 cells per 6-well were then plated for 7-9 days in drug-free medium. Grown colonies were fixed and stained with 1% formaldehyde, 1% methanol and 0.05% Crystal Violet for 20 min. Colony numbers were then counted with the Colony Area ImageJ plugin and plotted as percent of control on a logarithmic scale.

OVCAR5-V5-CT45 tumors = experiment: Subcutaneous tumor growth in nude mice, CT45 expressing tumors; assay type: in vivo, athymic nude mice; settings: carboplatin 20 mg/kg tail vein 1 time/week, vs untreated CT45 tumors
Protocol: (§1) 5 million OVCAR5-V5 or OVCAR5-V5-CT45 cells suspended in a 1:2 solution of serum-free media to growth-factor reduced matrigel were injected subcutaneously into the right and left flanks respectively, of 8 week old female athymic nude mice. After 5 days, treatment was administered through the tail vein 1 time/week at 20 mg/kg. Sterile water served as the control treatment. Tumor growth was measured every 2-3 days using calipers until the tumor neared 1 cm3 and was measured daily. Once the tumor reached 1 cm3 the mouse was sacrificed. 4 mice were removed from the study early due to ulcerations of the skin. All experiments were approved by the Institutional Animal Care and Use Committee of the University of Chicago.
as §1, with “Five million” for “5 million”, “8 weeks” for “8 week”, “1 cm^3” for “1 cm3”, “skin. […]” for “skin. All experiments were approved by the Institutional Animal Care and Use Committee of the University of Chicago.”

[4] = system: OVCAR5-V5 (control plasmid) tumors; experiment: Subcutaneous tumor growth in nude mice, control vector tumors; assay type: in vivo, athymic nude mice; settings: carboplatin 20 mg/kg tail vein 1 time/week, control cell line
Protocol: as §1
as §1, with “Five million” for “5 million”, “8 weeks” for “8 week”, “1 cm^3” for “1 cm3”, “skin. […]” for “skin. All experiments were approved by the Institutional Animal Care and Use Committee of the University of Chicago.”

Question: `N.N.O=C([O-])C1(C(=O)[O-])CCC1.[Pt+2]` [carboplatin] was tested. Which “interaction of CT45 with heterochromatin-associated PP4” value [1] did it give?
Answer: not affected

Question: And the “DNA damage (tail moment)” value [2]?
Answer: higher levels of DNA damage; also recorded: more DNA damage

Question: And the colony formation [3]?
Answer: significantly reduced

Question: What about the tumor growth (OVCAR5-V5-CT45 tumors) of the same compound?
Answer: significantly reduced growth

Question: And the tumor growth [4]?
Answer: no effect
